Assay results reported in patent US20250281460A1, “PEGYLATED BILIRUBIN FOR THE TREATMENT OF […], OBESITY, FATTY LIVER DISEASE, CARDIOVASCULAR DISEASES AND TYPE II DIABETES” (The University of Toledo, priority 2019, published 2025).

Assays:
3T3-PPARα cells = test: SeaHorse mitochondrial respiration in 3T3-PPARα cells; format: cell-based, mouse; settings: 3T3-L1 cells overexpressing PPARα
Excerpt: To investigate the specific role of bilirubin on PPARα or PPARγ as well as mitochondrial function and gene regulation, 3T3-LI cells that overexpressed each receptor (3T3-PPARα or 3T3-PPARγ2) were generated via lentivirus (FIGS. 2A-2B). […] The 3T3-Vector cells had no responses to biliverdin in FIGS. 2A-2B.
(§1) Cellular respiration was quantified using the Seahorse Extracellular Flux Analyzer XF-96 (Agilent Technologies, Cedar Creek, TX). The Seahorse XF Cell Mito Stress Test Kit (Agilent Technologies, Cat #103015-100) was used for analysis of cellular respiration. BAT or 3T3-L1 cells were seeded on a XF96 cell culture microplate (Agilent 101085-004) at 20,000 cells per well. Cells were then differentiated as previously described for 9 days. […] The oxygen consumption rate (OCR) and extracellular acidification rate (ECAR) were used to quantify the cellular energy phenotype of the cells. After treatment, cells were washed twice with Seahorse Bioscience Assay Media (XF Base media with 25 mM Glucose, 2 mM […], and 1 mM Sodium Pyruvate) then incubated with the buffer for 1 hour in a non-CO2 incubator. The Seahorse Cartridge ports were loaded with […] of assay media with […] FCCP, 10 μM Oligomycin, 5 μM Rotenone/Antimycin A in different ports an hour before assay. […] The raw data and graphs were supplied as an Excel File or Graphpad Prizm file.

Adrb3 promoter = Adrb3 promoter luciferase reporter in Cos7 cells with or without PPARα; format: cell-based, murine
Protocol: To determine if biliverdin/bilirubin is increasing Adrb3 in a PPARa-dependent manner, the proximal (−2816 to +118) and enhancer (−4770 to −4430) regions of the murine promoter in the pGL4.10 construct were cloned. The constructs were transfected with or without PPARα in receptorless Cos7 cells. The proximal promoter had no response with or without PPARα expressed in Cos7 cells (FIGS. 3D-3E). […] Therefore, various areas within the Adrb3 promoter were analyzed using the information from the luciferase promoter data and with analysis of several suspected PPREs in the promoter region.
An expression vector for Flag-Tagged PPARα was constructed as previously described. The cells were transfected with RXR-SG5 and either WT-Flag PPARα or with a Flag-Tagged PPARα plasmid with one of the following mutations: M330G, A333G, or T283G, in order to determine if binding of bilirubin at previously predicted positions would alter activity. Cells were also transfected with RXR-SG5 to enhance PPAR activity and the PPAR minimal reporter promoter plasmid (3Tk-Luc), whose activity was measured by luciferase, and pRL-CMV Renilla reporter for normalization to transfection efficiency. Transient transfection was achieved using GeneFect (Alkali Scientific, Inc.) during a 24-hour span.

3T3-L1 cells = test: Real-time PCR of mitochondrial and lipid burning genes in 3T3-L1 cells; format: cell-based, mouse
Protocol: Whether bilirubin decreases adiposity by enhancing mitochondrial function was evaluated. It was previously shown that bilirubin reduces lipid accumulation in adipocytes. However, it remained to be determined if this occurs by activation of PPARα to reduce adiposity, selective actions on PPARγ, or is a dual PPAR agonist, which together may mediate its glucose- and lipid-lowering effects. First, to determine if bilirubin enhances genes for mitochondrial function, 3T3-L1 cells, a WAT-type murine pre-adipocyte cell line that differentiates to full adipocytes, were treated with increasing concentrations of biliverdin, which is more soluble and is rapidly produced to bilirubin, over the 9-day adipocytic differentiation protocol.
Total RNA was extracted from mouse tissues using the miRNeasy Mini Kit (Qiagen). Total RNA was read on a NanoDrop 2000 spectrophotometer (Thermo Fisher Scientific, Wilmington, DE) and cDNA was synthesized using High Capacity cDNA Reverse Transcription Kit (Applied Biosystems). PCR amplification of the cDNA was performed by quantitative real-time PCR using TrueAmp SYBR Green qPCR SuperMix (Advance Bioscience). The thermocycling protocol consisted of 3 min at 95° C., 48 cycles of 15 sec at 95° C., 30 sec at 60° C., and based on primer size 0 to 30 sec at 72° C. and finished with a melting curve ranging from 60-95° C. to allow distinction of specific products. Normalization was performed in separate reactions with primers to 36B4.

3T3-L1-WAT adipocytes = test: SeaHorse oxygen consumption rate in fully differentiated 3T3-L1-WAT adipocytes; format: cell-based, mouse; settings: 50 μM biliverdin, 50 μM WY 14,463, 10 μM rosiglitazone
Protocol: To compare the effects of bilirubin on the activation of PPARα or PPARγ on mitochondrial function, a SeaHorse XFe96 Analyzer was used to measure oxygen consumption rate (OCR) in fully differentiated 3T3-L1-WAT adipocytes treated with 50 μM biliverdin, 50 μM WY 14,463 (PPARα agonist), or 10 μM rosiglitazone (PPARγ-agonist). […]. Rosiglitazone, but not biliverdin or WY 14,643, enhanced the coupling efficiency. None of the ligands affected non-mitochondrial respiration, basal respiration, or proton leak.
as §1

C=CC1=C(C)/C(=C/C2=NC(=C\c3[nH]c(/C=C4\NC(=O)C(C)=C4C=C)c(C)c3CCC(=O)O)/C(CCC(=O)O)=C2C)NC1=O [biliverdin]
ATP production (3T3-PPARα cells): significantly higher | basal respiration (3T3-PPARα cells): significantly higher | maximum respiration (3T3-PPARα cells): significantly higher | proton leak (3T3-PPARα cells): significantly higher | luciferase activity, enhancer region with mutated PPREs (Adrb3 promoter; mutations in each PPRE separately): no induction | luciferase activity, enhancer (−4770 to −4430) region (Adrb3 promoter; with PPARα overexpression): significantly higher | luciferase activity, proximal (−2816 to +118) promoter (Adrb3 promoter; with or without PPARα expressed in Cos7 cells): no response | Ucp1 mRNA (3T3-L1 cells; 1 μM): significantly heightened | Cpt1 mRNA expression (3T3-L1 cells; 50 μM): significantly increased | Ucp1 mRNA expression (3T3-L1 cells; 50 μM): significantly increased | ATP production (3T3-L1-WAT adipocytes): significantly elevated | mitochondrial OCR for maximum respiration (3T3-L1-WAT adipocytes): significantly increased
